Data: ChEMBL document CHEMBL1201862, “PubChem BioAssay data set” (2004)
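All cell lines were grown in 96-well plates and treated with compound for 48 hours. GI50 marks 50% less growth.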 The source made the active and inactive calls. Rule as the data show it: active = GI50 up to about 1.1 µM and inactive = higher.

How the values were obtained:
Assay in all cases: inhibition of tumour cell growth, NCI panel, 48 h
A549 = test system: A549
ACHN = test system: ACHN
CAKI-1 = test system: CAKI-1
CCRF-CEM = test system: CCRF-CEM
HCT-116 = test system: HCT-116
HOP-62 = test system: HOP-62
Hs-578T = test system: Hs-578T
IGROV-1 = test system: IGROV-1
Malme-3M = test system: Malme-3M
NCI-H460 = test system: NCI-H460
NCI-H522 = test system: NCI-H522
OVCAR-5 = test system: OVCAR-5
PC-3 = test system: PC-3
RPMI-8226 = test system: RPMI-8226
SK-MEL-5 = test system: SK-MEL-5
SK-OV-3 = test system: SK-OV-3
SNB-19 = test system: SNB-19
SNB-75 = test system: SNB-75
SW-620 = test system: SW-620
TK-10 = test system: TK-10

Measured: GI50

COC(=O)C1=C(C)NC(C)=C(C(=O)OCCCN2CCC(c3ccccc3)(c3ccccc3)CC2)[C@H]1c1cccc([N+](=O)[O-])c1 [NIGULDIPINE]
inactive: A549 1790 nM | ACHN 1660 nM | CAKI-1 3980 nM | CCRF-CEM 1140 nM | HCT-116 1510 nM | HOP-62 4600 nM | Hs-578T 1690 nM | IGROV-1 1800 nM | Malme-3M 2070 nM | NCI-H460 1810 nM | NCI-H522 2490 nM | OVCAR-5 2900 nM | PC-3 1520 nM | RPMI-8226 1610 nM | SK-MEL-5 1750 nM | SK-OV-3 5240 nM | SNB-19 1700 nM | SNB-75 1370 nM | SW-620 1920 nM | TK-10 2910 nM
